Patent US20240335442A1 (Eurofarma Laboratórios S.A., priority 2021, published 2024)

What was measured:
[1] = biological target: human sodium channel Nav 1.8 (Homo sapiens (Human), UniProt Q9Y5Y9); assay: Automated whole-cell voltage-clamp (ScreenPatch 384P), Nav 1.8 sodium current, Protocol 2; format: cell-based; settings: read-out: Nav1.8 IC50
Experimental: (§1) Biological assays were performed on Chinese hamster ovary (CHO) cells expressing the human sodium channels Nav 1.8 and Nav 1.7 stably.
(§2) The experimental voltage-clamp protocol using the whole cell configuration was established on the automated ScreenPatch® 384P platform (SP384PE, Nanion Technologies, Livingston, NJ) and recording of the results was performed with a Nanion 384-well Patch Clamp chip (NPC) (Nanion Technologies, Livingston, NJ).
(§3) Compounds of Formula (I), were diluted in eight concentrations in the extracellular solution composed of physiological saline, buffered with HEPES (mM): NaCl, 137; KCl, 4; CaCl2, 3.8; MgCl2, 1; HEPES, 10; Glucose, 10; pH 7.4. The […], 50; CsF, 90; MgCl2, 5; EGTA, 5; HEPES, 10; pH 7.2. The duration of exposure of each compound with the cells expressing Nav 1.7 or Nav 1.8 was at least five minutes and the assays were performed at room temperature.
(§4) The measurements of the sodium currents of Nav 1.8 and Nav 1.7 were obtained using the voltage protocols described below: • Protocol 1: A holding voltage of-90 mV was established followed by a voltage phase of 200 ms to-120 mV, followed by a voltage step of 10 mV for 1 second for Nav 1.8 or 0 mV for Nav 1.7, followed by a step of-100 mV for 20 ms, followed by a step of 20 ms for 10 mV for Nav 1.8 or 0 mV for Nav 1.7 (TP1A) before returning to the holding voltage of-90 mV. • Protocol 2: A holding voltage of-100 mV was established followed by an inactivation voltage step at −40 mV for 8 seconds, followed by a −100 mV step for 20 ms, followed by a 20 ms step for 10 mV for Nav 1.8 or 0 mV for Nav 1.7 (TP1A) before returning to the holding voltage of-100 mV.
(§5) Protocols were repeated at a frequency of 0.1 Hz (Protocol 1) or 0.05 Hz (Protocol 2) and current amplitude was quantified over the TP1A phase log. The variation in the peak amplitude of the current was evaluated according to the Formula described below, after exposure of the cells expressing the channels, at each concentration of the different compounds:
(§6) where ITP1A,basal, and ITP1A,molecule represent the entry peaks of sodium currents into TP1A prior to exposure to the compound and in the presence of the compound, respectively.
(§7) The decrease in peak current amplitude, after exposure of the cells to the compounds, was used to calculate the percent relative blocking of the channels relative to the positive control according to the Formula below: […]
(§8) where % V and % CP represent the averages of the values of current inhibition with a vehicle (DMSO) and positive controls, respectively. The sodium currents of the positive control were considered as 100%.
(§9) where [Test] represents the concentration of the evaluated molecule, IC50 is the concentration of the compound that generates half of the maximum inhibition, N is the Hill's coefficient and % Block′ is the percentage of the sodium channel current (Nav 1.8 and Nav 1.7) inhibited at each concentration of the evaluated molecule. Data were obtained by non linear least squares regression with XL fit for Excel (Microsoft, Redmond, WA).
(§10) Compounds were tested in at least one assay to obtain the IC50 value.

[2] = biological target: human sodium channel Nav 1.7 (Homo sapiens (Human), UniProt Q15858); assay: Automated whole-cell voltage-clamp (ScreenPatch 384P), Nav 1.7 sodium current, Protocol 2; format: cell-based; settings: read-out: Nav1.7 IC50
Experimental: as §1, §2, §3, §4, §5, §6, §7, §8, §9, §10

human sodium channel Nav 1.8, sequence (Q9Y5Y9 whole entry): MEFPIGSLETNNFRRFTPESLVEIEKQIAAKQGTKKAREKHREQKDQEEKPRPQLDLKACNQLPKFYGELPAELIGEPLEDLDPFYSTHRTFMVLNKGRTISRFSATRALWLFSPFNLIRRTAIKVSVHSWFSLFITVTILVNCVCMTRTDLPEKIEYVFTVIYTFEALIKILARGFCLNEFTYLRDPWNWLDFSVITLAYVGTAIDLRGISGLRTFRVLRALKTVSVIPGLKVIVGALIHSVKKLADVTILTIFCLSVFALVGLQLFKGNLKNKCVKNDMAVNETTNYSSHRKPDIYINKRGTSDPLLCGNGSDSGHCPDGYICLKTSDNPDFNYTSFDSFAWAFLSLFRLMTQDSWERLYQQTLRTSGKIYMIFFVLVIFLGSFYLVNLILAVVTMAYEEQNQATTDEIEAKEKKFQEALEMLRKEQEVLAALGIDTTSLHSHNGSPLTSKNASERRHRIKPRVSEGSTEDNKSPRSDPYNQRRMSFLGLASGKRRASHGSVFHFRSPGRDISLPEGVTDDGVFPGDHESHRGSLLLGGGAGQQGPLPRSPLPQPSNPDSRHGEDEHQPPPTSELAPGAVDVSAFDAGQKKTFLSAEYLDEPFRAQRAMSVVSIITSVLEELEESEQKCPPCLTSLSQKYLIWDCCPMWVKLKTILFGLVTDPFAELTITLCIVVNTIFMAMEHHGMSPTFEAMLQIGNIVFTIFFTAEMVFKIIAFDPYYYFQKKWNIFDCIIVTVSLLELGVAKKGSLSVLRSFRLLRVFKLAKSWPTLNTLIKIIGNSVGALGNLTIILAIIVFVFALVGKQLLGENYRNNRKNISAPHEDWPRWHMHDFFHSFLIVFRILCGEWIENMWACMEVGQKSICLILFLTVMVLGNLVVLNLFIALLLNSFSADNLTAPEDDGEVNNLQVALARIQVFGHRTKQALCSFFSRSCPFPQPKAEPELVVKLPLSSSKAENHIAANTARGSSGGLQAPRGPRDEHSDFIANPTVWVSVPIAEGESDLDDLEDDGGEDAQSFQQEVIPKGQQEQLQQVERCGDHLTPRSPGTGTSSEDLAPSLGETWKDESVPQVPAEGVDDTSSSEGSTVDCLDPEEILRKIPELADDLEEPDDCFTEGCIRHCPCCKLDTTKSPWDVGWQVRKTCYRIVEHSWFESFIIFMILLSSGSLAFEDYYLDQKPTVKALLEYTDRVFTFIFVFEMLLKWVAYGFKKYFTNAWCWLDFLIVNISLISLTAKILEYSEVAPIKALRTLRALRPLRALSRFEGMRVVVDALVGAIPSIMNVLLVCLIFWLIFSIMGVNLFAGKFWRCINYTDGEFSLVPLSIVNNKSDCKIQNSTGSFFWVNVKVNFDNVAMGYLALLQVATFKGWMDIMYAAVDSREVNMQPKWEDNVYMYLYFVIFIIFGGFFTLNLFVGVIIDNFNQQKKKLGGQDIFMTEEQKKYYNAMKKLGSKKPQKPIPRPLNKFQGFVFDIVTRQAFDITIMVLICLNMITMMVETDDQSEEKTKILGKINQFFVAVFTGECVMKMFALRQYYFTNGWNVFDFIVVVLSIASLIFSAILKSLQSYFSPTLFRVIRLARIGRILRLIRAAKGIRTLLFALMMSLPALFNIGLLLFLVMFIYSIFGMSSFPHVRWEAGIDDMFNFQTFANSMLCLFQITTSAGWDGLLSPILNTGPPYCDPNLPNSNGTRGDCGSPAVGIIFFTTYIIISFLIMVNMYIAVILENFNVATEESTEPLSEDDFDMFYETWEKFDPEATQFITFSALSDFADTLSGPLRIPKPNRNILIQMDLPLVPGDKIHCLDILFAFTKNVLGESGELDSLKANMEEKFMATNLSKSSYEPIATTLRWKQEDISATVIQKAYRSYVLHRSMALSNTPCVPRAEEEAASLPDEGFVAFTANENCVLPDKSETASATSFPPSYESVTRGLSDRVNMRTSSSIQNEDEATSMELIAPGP
human sodium channel Nav 1.7, sequence (Q15858 whole entry): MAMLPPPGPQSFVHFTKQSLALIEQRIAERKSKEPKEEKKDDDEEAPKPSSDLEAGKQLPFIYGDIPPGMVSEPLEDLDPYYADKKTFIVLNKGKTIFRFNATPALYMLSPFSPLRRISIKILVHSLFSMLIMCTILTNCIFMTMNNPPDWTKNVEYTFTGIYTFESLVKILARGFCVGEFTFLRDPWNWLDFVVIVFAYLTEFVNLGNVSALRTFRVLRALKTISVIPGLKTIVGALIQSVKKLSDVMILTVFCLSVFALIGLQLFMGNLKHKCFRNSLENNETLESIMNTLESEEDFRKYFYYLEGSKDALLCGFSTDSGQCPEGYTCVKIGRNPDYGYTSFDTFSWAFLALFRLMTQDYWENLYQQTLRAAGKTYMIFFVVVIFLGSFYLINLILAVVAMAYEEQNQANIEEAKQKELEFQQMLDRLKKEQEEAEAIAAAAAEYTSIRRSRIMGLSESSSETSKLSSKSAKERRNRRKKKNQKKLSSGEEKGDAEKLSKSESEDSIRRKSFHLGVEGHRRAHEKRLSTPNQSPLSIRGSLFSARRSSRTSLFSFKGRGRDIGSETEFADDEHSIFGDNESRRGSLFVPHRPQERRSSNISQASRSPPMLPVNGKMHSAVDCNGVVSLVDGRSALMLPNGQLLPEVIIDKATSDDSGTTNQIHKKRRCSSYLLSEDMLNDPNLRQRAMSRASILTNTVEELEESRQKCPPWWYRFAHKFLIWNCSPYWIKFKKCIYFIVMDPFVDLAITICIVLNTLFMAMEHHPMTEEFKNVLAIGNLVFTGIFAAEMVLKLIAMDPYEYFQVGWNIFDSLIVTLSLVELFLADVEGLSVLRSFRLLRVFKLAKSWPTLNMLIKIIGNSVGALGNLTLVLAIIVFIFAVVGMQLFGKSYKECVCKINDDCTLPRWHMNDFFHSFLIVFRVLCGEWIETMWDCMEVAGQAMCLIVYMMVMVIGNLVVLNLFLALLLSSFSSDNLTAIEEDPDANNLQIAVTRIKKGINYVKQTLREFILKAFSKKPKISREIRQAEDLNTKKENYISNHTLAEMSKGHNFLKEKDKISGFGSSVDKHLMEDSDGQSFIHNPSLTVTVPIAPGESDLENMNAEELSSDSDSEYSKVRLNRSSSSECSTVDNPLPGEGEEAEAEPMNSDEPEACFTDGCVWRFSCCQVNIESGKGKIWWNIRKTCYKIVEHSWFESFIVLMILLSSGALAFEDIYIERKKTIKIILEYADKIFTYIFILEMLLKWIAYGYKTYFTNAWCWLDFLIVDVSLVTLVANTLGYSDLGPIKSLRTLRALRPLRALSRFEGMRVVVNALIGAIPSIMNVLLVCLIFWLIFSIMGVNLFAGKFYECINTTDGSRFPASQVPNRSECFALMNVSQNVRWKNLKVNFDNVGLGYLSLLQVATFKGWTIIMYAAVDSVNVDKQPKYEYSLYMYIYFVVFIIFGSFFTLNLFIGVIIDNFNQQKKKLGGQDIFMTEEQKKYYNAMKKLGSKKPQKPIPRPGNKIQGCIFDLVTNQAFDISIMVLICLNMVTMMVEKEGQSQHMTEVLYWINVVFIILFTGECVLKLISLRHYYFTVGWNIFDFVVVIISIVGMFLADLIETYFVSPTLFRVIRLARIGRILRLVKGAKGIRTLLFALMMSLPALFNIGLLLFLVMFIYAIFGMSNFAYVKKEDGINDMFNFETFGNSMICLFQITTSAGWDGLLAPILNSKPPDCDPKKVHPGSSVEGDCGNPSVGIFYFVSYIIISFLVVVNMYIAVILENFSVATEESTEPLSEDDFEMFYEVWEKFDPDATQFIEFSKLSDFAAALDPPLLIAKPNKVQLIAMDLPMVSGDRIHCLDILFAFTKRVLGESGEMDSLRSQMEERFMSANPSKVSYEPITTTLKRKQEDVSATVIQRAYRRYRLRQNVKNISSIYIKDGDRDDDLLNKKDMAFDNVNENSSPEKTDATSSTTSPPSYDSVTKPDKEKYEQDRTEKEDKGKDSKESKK

Row | SMILES | IC50 [1] [nM] | IC50 [2] [nM]
1 | COc1cc(/C=N/NC(=O)c2cncc(-c3ccc(Cl)cc3)n2)cc(OC)c1 [Compound 1, 6-(4-chlorophenyl)-N′-[(E)-(3,5-dimethoxyphenyl)methylidene]pyrazine-2-carbohydrazide] | > 1000 | > 1000
2 | CCOc1ccc(-c2cncc(C(=O)N/N=C/c3cc(OC)cc(OC)c3)n2)cc1 [Compound 2, (E)-N′-(3,5-dimethoxybenzylidene)-6-(4-ethoxyphenyl)pyrazine-2-carbohydrazide] | 32.5 | 239
3 | CCOc1ccc(-c2cncc(C(=O)N/N=C/c3cc(OC)ccc3OC)n2)cc1 [Compound 3, (E)-N′-(2,5-dimethoxybenzylidene)-6-(4-ethoxyphenyl)pyrazine-2-carbohydrazide] | 152 | 855
4 | CCOc1ccc(-c2cncc(C(=O)N/N=C/c3ccnc(OC)c3)n2)cc1 [Compound 10, (E)-6-(4-ethoxyphenyl)-N′-((2-methoxypyridin-4-yl)methylene)pyrazine-2-carbohydrazide] | > 300 | > 300
5 | CCCOc1cc(/C=N/NC(=O)c2cncc(-c3ccc(OCC)cc3)n2)cc(OC)c1 [Compound 16, (E)-6-(4-ethoxyphenyl)-N′-(3-methoxy-5-propoxybenzylidene)pyrazine-2-carbohydrazide] | 93.3 | 224
6 | CCOc1ccc(-c2cncc(C(=O)N/N=C/c3cc(OC)c(F)c(OC)c3)n2)cc1 [Compound 17, (E)-6-(4-ethoxyphenyl)-N′-(4-fluoro-3,5-dimethoxybenzylidene)pyrazine-2-carbohydrazide] | 232 | 7860
7 | CCOc1ccc(-c2cncc(C(=O)N/N=C/c3cc(OC)ccc3Cl)n2)cc1 [Compound 18, (E)-N′-(2-chloro-5-methoxybenzylidene)-6-(4-ethoxyphenyl)pyrazine-2-carbohydrazide] | 62.6 | 237
8 | CCOc1ccc(-c2cncc(C(=O)N/N=C/c3cccc(OC)c3F)n2)cc1 [Compound 21, (E)-6-(4-ethoxyphenyl)-N′-(2-fluoro-3-methoxybenzylidene)pyrazine-2-carbohydrazide] | 74.5 | 268
9 | CCOc1ccc(-c2cncc(C(=O)N/N=C/c3ccccc3OC)n2)cc1 [Compound 26, (E)-6-(4-ethoxyphenyl)-N′-(2-methoxybenzylidene)pyrazine-2-carbohydrazide] | 24.9 | 322
10 | CCOc1ccc(-c2cncc(C(=O)N/N=C/c3cccc(OC)c3OC)n2)cc1 [Compound 27, (E)-N′-(2,3-dimethoxybenzylidene)-6-(4-ethoxyphenyl)pyrazine-2-carbohydrazide] | 221 | 233
11 | COc1cc(/C=N/NC(=O)c2cncc(-c3ccc(OC4CCCC4)cc3)n2)cc(OC)c1 [Compound 30, 6-[4-(cyclopentyloxy)phenyl]-N′-[(E)-(3,5-dimethoxyphenyl)methylidene]pyrazine-2-carbohydrazide] | 102 | 55.6
12 | COc1cc(/C=N/NC(=O)c2cncc(-c3ccc(OC(F)(F)F)cc3)n2)cc(OC)c1 [Compound 31, N′-[(E)-(3,5-dimethoxyphenyl)methylidene]-6-[4-(trifluoromethoxy)phenyl]pyrazine-2-carbohydrazide] | 132 | > 10000
13 | CCCOc1ccc(-c2cncc(C(=O)N/N=C/c3cc(OC)cc(OC)c3)n2)cc1 [Compound 32, N′-[(E)-(3,5-dimethoxyphenyl)methylidene]-6-(4-propoxyphenyl)pyrazine-2-carbohydrazide] | 73.9 | 210
14 | COc1ccc(-c2cncc(C(=O)N/N=C/c3cc[nH]c(=O)c3)n2)cc1 [Compound 34, (E)-6-(4-methoxyphenyl)-N′-((2-oxo-1,2-dihydropyridin-4-yl)methylene)pyrazine-2-carbohydrazide] | > 1000 | > 10000
15 | COc1ccc(-c2cncc(C(=O)N/N=C/c3ccnc(C(N)=O)c3)n2)cc1 [Compound 36, (E)-4-((2-(6-(4-methoxyphenyl)pyrazine-2-carobnyl)hydrazono)methyl)picolinamide] | > 1000 | > 10000
16 | COc1ccc(-c2cncc(C(=O)N/N=C/c3cccc(OC(C)C)c3)n2)cc1 [Compound 41, (E)-N′-(3-isopropoxybenzylidene)-6-(4-methoxyphenyl)pyrazine-2-carbohydrazide] | 94.5 | 3290
17 | COc1ccc(-c2cncc(C(=O)N/N=C/c3ccccc3OC)n2)cc1 [Compound 42, (E)-N′-(2-methoxybenzylidene)-6-(4-methoxyphenyl)pyrazine-2-carbohydrazide] | 621 | 3900

More lines, now with the values ahead:

Row | IC50 [1] [nM] | IC50 [2] [nM] | SMILES
18 | > 300 | > 300 | CCOc1ccc(-c2cncc(C(=O)N/N=C/c3cc(OC)cc4ocnc34)n2)cc1 [Compound 6, (E)-6-(4-ethoxyphenyl)-N′-((6-methoxybenzo[d]oxazol-4-yl)methylene)pyrazine-2-carbohydrazide]
19 | 73 | 189 | CCOc1ccc(-c2cncc(C(=O)N/N=C/c3cc(OC)cc(OC)c3OC)n2)cc1 [Compound 13, (E)-6-(4-ethoxyphenyl)-N′-(2,3,5-trimethoxybenzylidene)pyrazine-2-carbohydrazide]
20 | 156 | 308 | CCOc1ccc(-c2cncc(C(=O)N/N=C/c3cc(OC)cc(OC)c3OCC)n2)cc1 [Compound 14, (E)-N′-(2-ethoxy-3,5-dimethoxybenzylidene)-6-(4-ethoxyphenyl)pyrazine-2-carbohydrazide]
21 | 25.2 | 243 | CCOc1ccc(-c2cncc(C(=O)N/N=C/c3cc(F)cc(OC)c3)n2)cc1 [Compound 15, (E)-6-(4-ethoxyphenyl)-N′-(3-fluoro-5-methoxybenzylidene)pyrazine-2-carbohydrazide]
22 | 93.5 | 575 | CCOc1ccc(-c2cncc(C(=O)N/N=C/c3cccc(OC)c3Cl)n2)cc1 [Compound 19, (E)-N′-(2-chloro-3-methoxybenzylidene)-6-(4-ethoxyphenyl)pyrazine-2-carbohydrazide]
23 | 13.3 | 228 | CCOc1ccc(-c2cncc(C(=O)N/N=C/c3cc(OC)ccc3F)n2)cc1 [Compound 20, (E)-6-(4-ethoxyphenyl)-N′-(2-fluoro-5-methoxybenzylidene)pyrazine-2-carbohydrazide]
24 | 27.2 | 228 | CCOc1ccc(-c2cncc(C(=O)N/N=C/c3cccc(OC)c3)n2)cc1 [Compound 22, (E)-6-(4-ethoxyphenyl)-N′-(3-methoxybenzylidene)pyrazine-2-carbohydrazide]
25 | 51.3 | 63.1 | COc1cc(/C=N/NC(=O)c2cncc(-c3ccc(OC(C)C)cc3)n2)cc(OC)c1 [Compound 29, (E)-N′-(3,5-dimethoxybenzylidene)-6-(4-isopropoxyphenyl)pyrazine-2-carbohydrazide]
26 | > 1000 | > 10000 | COc1ccc(-c2cncc(C(=O)N/N=C/c3ccc(F)c(C(N)=O)c3)n2)cc1 [Compound 35, (E)-2-fluoro-5-((2-(6-(4-methoxyphenyl)pyrazine-2-carbonyl)hydrazono)methyl)benzamide]
27 | 115 | 1570 | COc1ccc(-c2cncc(C(=O)N/N=C/c3cccc(OC)c3)n2)cc1 [Compound 37, (E)-N′-(3-methoxybenzylidene)-6-(4-methoxyphenyl)pyrazine-2-carbohydrazide]
28 | > 1000 | > 10000 | COc1ccc(-c2cncc(C(=O)N/N=C/c3cccc(CN(C)C)c3)n2)cc1 [Compound 38, (E)-N′-(3-((dimethylamino)methyl)benzylidene)-6-(4-methoxyphenyl)pyrazine-2-carbohydrazide]
29 | 277 | 3360 | CCCOc1cccc(/C=N/NC(=O)c2cncc(-c3ccc(OC)cc3)n2)c1 [Compound 40, (E)-6-(4-methoxyphenyl)-N′-(3-propoxybenzylidene)pyrazine-2-carbohydrazide]
